This passage reports GI50 and TGI results from PubChem BioAssay (NCI).

SMILES strings stand for the structures. Where “and” joins values, the source holds several entries; their conditions need not be identical. Identical values can stand only once.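 96-well plates; 48 h exposure; 5 concentrations. Endpoints by linear interpolation between flanking doses. Not reached: highest tested concentration assigned. Abbreviation: GI50, concentration required for 50% inhibition of growth. At the TGI there is no net growth.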 Where only a bound is given, the exact number is not on record here.

Test systems include OVCAR-8 ovarian; NCI-H23 lung; NCI-H522 lung; RPMI-8226 leukemia; SF-268 CNS; OVCAR-3 ovarian; UO-31 renal; CCRF-CEM leukemia; HOP-92 NSCLC; NCI/ADR-RES ovarian.
Holding throughout (assay): NCI-60 cell line screen, 48 h

On to `O=c1ccn(C2CC(O)C(CO)O2)c(=O)[nH]1` (stereo unspecified), for which the GI50 is above 5000 µM in the experiment on OVCAR-8 ovarian; above 5000 µM in the experiment with NCI-H23 lung; above 5000 µM in the experiment with NCI-H522 lung; 1190 µM in the experiment with RPMI-8226 leukemia; above 5000 µM in the experiment with SF-268 CNS; above 5000 µM in the experiment on OVCAR-3 ovarian. The GI50 in the experiment with UO-31 renal is above 5000 µM; in the experiment with CCRF-CEM leukemia, 95.8 µM and 110 µM; in the experiment on HOP-92 NSCLC, above 5000 µM; with NCI/ADR-RES ovarian it was above 5000 µM. Moreover, the TGI with OVCAR-8 ovarian, in the experiment with NCI-H23 lung, in the experiment with NCI-H522 lung, with RPMI-8226 leukemia, in the experiment on SF-268 CNS and in the experiment on OVCAR-3 ovarian was above 5000 µM in each case. Also, the TGI in the experiment on UO-31 renal is above 5000 µM; in the experiment with CCRF-CEM leukemia it was 838 µM; with HOP-92 NSCLC, above 5000 µM; with NCI/ADR-RES ovarian it was above 5000 µM.
For the molecule `O=[N+]([O-])c1ccc2c(c1)Cc1cc(N=Cc3ccc4c(c3)OCO4)ccc1-2`, the TGI in the experiment on OVCAR-8 ovarian, in the experiment on NCI-H23 lung, in the experiment on NCI-H522 lung, with RPMI-8226 leukemia, in the experiment with SF-268 CNS and with OVCAR-3 ovarian was above 100 µM each time. The TGI in the experiment on UO-31 renal, with CCRF-CEM leukemia, with HOP-92 NSCLC and in the experiment on NCI/ADR-RES ovarian was above 100 µM each time.
For the molecule `COc1cccc(-n2nc(C)c3c(N/N=C(\C)c4ccncc4)ncnc32)c1`, the GI50 with OVCAR-8 ovarian, in the experiment on NCI-H23 lung, in the experiment with NCI-H522 lung, in the experiment with RPMI-8226 leukemia, in the experiment with SF-268 CNS and with OVCAR-3 ovarian was above 25 µM throughout. The GI50 is 13.8 µM in the experiment with UO-31 renal, above 25 µM in the experiment with CCRF-CEM leukemia, 1.86 µM with HOP-92 NSCLC and above 25 µM with NCI/ADR-RES ovarian. Moreover, the TGI with OVCAR-8 ovarian, in the experiment on NCI-H23 lung, with NCI-H522 lung, with RPMI-8226 leukemia, in the experiment on SF-268 CNS and in the experiment on OVCAR-3 ovarian was above 25 µM in each case. In addition, the TGI in the experiment on UO-31 renal is above 25 µM; with CCRF-CEM leukemia, above 25 µM; in the experiment with HOP-92 NSCLC, 16.9 µM; in the experiment on NCI/ADR-RES ovarian it was above 25 µM.
For the molecule `COc1cccc2c1C(=O)c1c(O)c3c(c(O)c1C2=O)CC(O)(C(O)CO)CC3OC1CC(N2CCOCC2)C(O)C(C)O1` (stereo unspecified), the TGI with OVCAR-8 ovarian is 0.0281 µM; with NCI-H23 lung, 0.0249 µM and 0.0419 µM; with NCI-H522 lung, 0.0172 µM and 0.0956 µM; with RPMI-8226 leukemia, 0.147 µM and 0.486 µM; with SF-268 CNS, 0.0166 µM and 0.158 µM; with UO-31 renal, 0.0314 µM and 0.0652 µM. For the same molecule, the results for the TGI in the experiment with CCRF-CEM leukemia, in the experiment on HOP-92 NSCLC and with NCI/ADR-RES ovarian were 0.221 µM, 0.0652 µM and 0.31 µM, respectively. Besides, the GI50 with NCI-H23 lung was 0.0174 µM; with NCI-H522 lung, 0.0264 µM; with RPMI-8226 leukemia, 0.0191 µM; in the experiment with SF-268 CNS, 0.0265 µM; with OVCAR-3 ovarian, 0.0323 µM; with UO-31 renal, 0.00398 µM and 0.0213 µM. Also, the GI50 in the experiment with HOP-92 NSCLC is 0.0188 µM.
Regarding `COc1cc2c3c(n(CCCCN)c(=O)c2cc1OC)-c1cc2c(cc1C3=O)OCO2`, the GI50 in the experiment on OVCAR-8 ovarian is 0.71 µM; with NCI-H23 lung, 0.676 µM; in the experiment on NCI-H522 lung it was 0.259 µM; with RPMI-8226 leukemia it was 0.351 µM; in the experiment with SF-268 CNS it was 0.801 µM; with OVCAR-3 ovarian, 1.01 µM. In addition, the GI50 was 2.97 µM in the experiment with UO-31 renal, 0.0913 µM in the experiment with CCRF-CEM leukemia, 0.487 µM in the experiment on HOP-92 NSCLC and 2.34 µM in the experiment with NCI/ADR-RES ovarian. Moreover, the TGI in the experiment with OVCAR-8 ovarian was 13.1 µM; in the experiment on NCI-H23 lung it was 3.09 µM; in the experiment with NCI-H522 lung, 9.89 µM; with RPMI-8226 leukemia, 1.31 µM; in the experiment on SF-268 CNS, 5.55 µM; in the experiment on OVCAR-3 ovarian, 2.67 µM. Further, the TGI with UO-31 renal was 12 µM; in the experiment with CCRF-CEM leukemia, 3.75 µM; in the experiment with HOP-92 NSCLC, 2.43 µM; with NCI/ADR-RES ovarian, 11.2 µM.
For the molecule `O=C(Cn1c(=O)c(-c2ccccc2)nc2ccccc21)Nc1ccc(F)cc1`, the GI50 is 39.6 µM with OVCAR-8 ovarian; above 100 µM in the experiment on NCI-H23 lung; 65.1 µM with NCI-H522 lung; 37.4 µM with RPMI-8226 leukemia; above 100 µM with SF-268 CNS; above 100 µM with OVCAR-3 ovarian. In addition, the GI50 in the experiment on UO-31 renal was above 100 µM; in the experiment on CCRF-CEM leukemia, 6.46 µM; in the experiment with HOP-92 NSCLC it was 22.5 µM; in the experiment on NCI/ADR-RES ovarian it was above 100 µM. Besides, the TGI in the experiment on OVCAR-8 ovarian, in the experiment on NCI-H23 lung, in the experiment with NCI-H522 lung, in the experiment on RPMI-8226 leukemia, with SF-268 CNS and with OVCAR-3 ovarian was above 100 µM each time. Moreover, the TGI in the experiment on UO-31 renal is above 100 µM; in the experiment on CCRF-CEM leukemia, above 100 µM; in the experiment on HOP-92 NSCLC, 86.2 µM; with NCI/ADR-RES ovarian, above 100 µM.
As for `Cc1ccc(-c2nc(C#N)c(S(=O)(=O)n3nc(C)cc3N)o2)cc1`, the GI50 in the experiment on OVCAR-8 ovarian was 4.66 µM; in the experiment on NCI-H23 lung it was 13.9 µM; in the experiment on NCI-H522 lung, 1.65 µM; in the experiment on RPMI-8226 leukemia it was 3.07 µM; in the experiment on SF-268 CNS it was 16.4 µM; in the experiment on OVCAR-3 ovarian, 2.08 µM. Moreover, the GI50 in the experiment on UO-31 renal is 1.74 µM; in the experiment with CCRF-CEM leukemia, 2.55 µM; with HOP-92 NSCLC, 2.27 µM; in the experiment with NCI/ADR-RES ovarian, 19 µM. Moreover, the TGI with OVCAR-8 ovarian was 20.9 µM; in the experiment with NCI-H23 lung it was 37.3 µM; with NCI-H522 lung, 3.58 µM; with RPMI-8226 leukemia it was 10.1 µM; in the experiment on SF-268 CNS, 36.2 µM; in the experiment on OVCAR-3 ovarian it was 3.73 µM. Besides, the TGI was found to be 3.33 µM with UO-31 renal, 7.83 µM with CCRF-CEM leukemia, 5.71 µM with HOP-92 NSCLC and 78.5 µM in the experiment with NCI/ADR-RES ovarian.
Consider `O=C(N/C(=C/c1ccc(Cl)cc1Cl)c1nc2ccccc2s1)c1ccccc1`, for which the TGI with OVCAR-8 ovarian is 47.4 µM; in the experiment with NCI-H23 lung, 26.5 µM; in the experiment on NCI-H522 lung, 24.7 µM; in the experiment on RPMI-8226 leukemia, above 100 µM; in the experiment on SF-268 CNS, 34 µM; in the experiment on OVCAR-3 ovarian it was 24.5 µM. Moreover, the TGI in the experiment with UO-31 renal is 29.9 µM; with CCRF-CEM leukemia, above 100 µM; in the experiment on HOP-92 NSCLC it was above 100 µM; in the experiment with NCI/ADR-RES ovarian, 39.5 µM.
